Experimental data: patent US6465258B1, “FXR receptor-mediated modulation cholesterol metabolism” (Tularik, Inc., priority 1999, dated 2002)
Entries after “also recorded” stand apart in the source; their conditions may differ.

Columns and labels:
LXRα [1] = molecular target: T1, LXRα (Homo sapiens, UniProt Q13133); test: FRET (HTRF) LXRα receptor control; format: binding; conditions: FIG. 5B bottom panel
T1 sequence (Q13133 1-447): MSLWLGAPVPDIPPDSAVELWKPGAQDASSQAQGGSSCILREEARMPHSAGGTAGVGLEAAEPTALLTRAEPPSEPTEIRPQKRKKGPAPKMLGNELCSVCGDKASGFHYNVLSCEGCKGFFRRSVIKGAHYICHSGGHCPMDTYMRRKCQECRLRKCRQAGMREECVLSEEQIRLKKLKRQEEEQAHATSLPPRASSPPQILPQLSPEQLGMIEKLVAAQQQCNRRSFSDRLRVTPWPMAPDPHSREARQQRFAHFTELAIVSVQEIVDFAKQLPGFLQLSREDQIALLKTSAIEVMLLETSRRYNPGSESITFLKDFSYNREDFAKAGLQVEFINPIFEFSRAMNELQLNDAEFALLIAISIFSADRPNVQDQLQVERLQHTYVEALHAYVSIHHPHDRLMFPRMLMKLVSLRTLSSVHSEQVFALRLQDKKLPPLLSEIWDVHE

LXRα [2] = molecular target: T1, LXRα; test: ELISA peptide sensor assay, LXRα control; format: binding; conditions: FIG. 5C bottom panel
Excerpt: A peptide sensor was used.

[3] = tested on: HNF4α, LXRα, RXRα and LXRβ ligand-binding domains fused to Gal4 DBD; test: GAL4 DBD fusions with LBDs of other nuclear receptors, luciferase reporter in HepG2 cells; format: cell-based; conditions: 50 μM CDCA, FIG. 1A
FXR / cyp7a promoter = conditions: HepG2 cells
full-length FXR = molecular target: T2, full-length FXR (Homo sapiens, UniProt Q96RI1); test: pGL3 3X FXRE luciferase reporter with full-length FXR in HepG2 cells; format: cell-based; conditions: panel of bile acids, FIG. 4C
T2 construct: a plasmid expressing full-length FXR (PFXR); expressed in transfected cells; host or cells: HepG2
T2 sequence (Q96RI1 1-486): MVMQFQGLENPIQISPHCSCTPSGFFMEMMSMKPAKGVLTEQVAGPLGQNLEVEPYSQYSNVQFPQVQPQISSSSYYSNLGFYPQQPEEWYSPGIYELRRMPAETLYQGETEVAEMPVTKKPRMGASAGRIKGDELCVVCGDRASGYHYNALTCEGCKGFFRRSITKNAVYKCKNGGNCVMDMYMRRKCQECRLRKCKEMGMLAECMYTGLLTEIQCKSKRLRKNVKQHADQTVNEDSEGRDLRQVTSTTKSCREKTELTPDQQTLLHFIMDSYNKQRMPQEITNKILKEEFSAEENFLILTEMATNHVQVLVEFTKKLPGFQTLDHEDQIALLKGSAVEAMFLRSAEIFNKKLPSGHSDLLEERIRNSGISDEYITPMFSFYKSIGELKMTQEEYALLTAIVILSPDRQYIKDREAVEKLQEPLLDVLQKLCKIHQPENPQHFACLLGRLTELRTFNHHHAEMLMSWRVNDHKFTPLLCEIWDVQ
Excerpt: The ability of different bile acids and derivatives to activate FXR-mediated transactivation was also examined.

Structure (SMILES): C[C@H](CCC1OC1(C)C)[C@H]1CC[C@H]2[C@@H]3CC=C4C[C@@H](O)CC[C@]4(C)[C@H]3CC[C@]12C (stereo partly drawn) [24,25 epoxycholesterol]
- binding of LXRα receptor control by FRET (LXRα [1]): affected
- binding of sensor peptide to LXRα control (ELISA) (LXRα [2]): increased binding

Structure (SMILES): C[C@H](CCC(=O)O)[C@H]1CC[C@H]2[C@@H]3[C@H](O)C[C@@H]4C[C@H](O)CC[C@]4(C)[C@H]3CC[C@]12C [CDCA, chenodeoxycholic acid]
- activation of ligand binding domains of other nuclear receptors fused to GAL4 DBD [3]: not activated
- suppression of CYP7 expression by nuclear receptors in presence of CDCA (FXR / cyp7a promoter; 10 μM CDCA, FXR vs CPF, HNF4α, LXRα, RXRα, FIG. 2A): Only FXR suppressed CYP7 expression
- FXR-mediated suppression of CYP7 expression, rank among bile acids (FXR / cyp7a promoter; panel of bile acids, FIG. 4D): highest level of suppression; also recorded: largest repression

Structure (SMILES): CC(CCC(=O)NCC(=O)O)C1CCC2C3C(O)CC4CC(O)CCC4(C)C3CCC12C (stereo not drawn) [GCDCA, glycochenodeoxycholic acid]
- induction of luciferase reporter activity (FXR-mediated transactivation), rank among bile acids (full-length FXR): greatest induction
